# Data as given in patent publication US6395741B1, “Agent for prophylaxis or treatment of dysuria” (Tanabe Seiyaku Co., Ltd., priority 1998, dated 2002).
# Square brackets hold non-standard residues; d marks the D form. Ends that are not written are not given here. Peptide text beside a SMILES is read from it. Nva = CCC[C@H](N)C(=O)O
# Columns and labels:
# anesthetized dogs = experiment: Urethral resistance increasing activity in the anesthetized dogs; format: in vivo, dog
# Procedure: (§1) Polyethylene tubes were inserted to male adult mongrel dogs which had been fasted overnight (four dogs, weights: 10 to 14 kg), under pentobarbital anesthesia (30 mg/kg, i.v.), at the femoral veins on both sides. The anesthesia was maintained by continuous transfusion of pentobarbital (4.5 mg/kg) from said polyethylene tubes, and the dogs were ventilated by a respirator for animal (20 strokes per minute, 15 ml/kg/ventilation). Then, a polyethylene tube was inserted for administration of a test compound into the duodenum, and the urinary bladder and the proximal urethra were exposed. In order to avoid the urinary backup within the urinary bladder, a polyethylene tube having a silicon tube was inserted at the ureters on both sides, by which a way for excreting the urine from the body was reserved. Moreover, in order to determine the ventral and dorsal prostatic urethral resistances, the apex of the urinary bladder was incised, and a 2-hole open-tip catheter (12Fr, manufactured by CLINY) was inserted into the prostatic urethra through the bladder body. Said catheter was ligated at the proximal urethra and the bladder body, and one of the ends thereof was connected with a pressure-transducer and a syringe pump (SP-25, manufactured by Terumo Corporation) via a three-way turncock. Then, the change in the perfusion pressure (i.e., the change in the urethral resistance, mmHg) caused by the continuous infusion of physiological saline (37° C., 3 ml/hr) through this catheter was recorded on a linearcorder (WR-3701, manufactured by Graphtec Corporation) via a carrier amplifier (AP-621G, manufactured by Nihon Kohden Corporation).
# In order to increase the urethral resistance, a solution of phenylephrine (α1 agonist) or endothelin-1 in physiological saline was intravenously administered at a prescribed dose (volume: 0.1 ml/kg) to the dogs when 60 minutes or more elapsed after the above operation.
# [1] = tested on: increase in urethral resistance induced by endothelin-1; experiment: Inhibitory activity against the increase in urethral resistance induced by endothelin-1; format: in vivo, dog; conditions: intraduodenal administration 1 mg/kg; endothelin-1 0.4 nmol/kg i.v.; dogs
# Procedure: as §1, with “Moreover, in order to determine the ventral and dorsal prostatic urethral resistances, the apex of the urinary bladder was incised, and a 2-hole open-tip catheter (12Fr, manufactured by CLINY) was inserted into the prostatic urethra through the bladder body. Said catheter was ligated at the proximal urethra and the bladder body, and one of the ends thereof was connected with a pressure-transducer and a syringe pump (SP-25, manufactured by Terumo Corporation) via a three-way turncock.” left out, “Corporation). […]” for “Corporation).”
# [2] = tested on: smooth muscle of hypertrophied prostatic adenoma; conditions: Journal of Japanese Urology Society, vol. 84, No. 9, 1993; cited from earlier work
# [3] = tested on: prostatic contractions induced by endothelin-1; conditions: JP-A-8-508034; cited from earlier work
molecule,measurement,setting,value
"endothelin-1 (CSCSSLMDKECVYFCHLDIIW; ends and bridges not checked; cysteine pairing not given here; UniProt P05305 53-73, looked up)",Average increase of the urethral resistance relative to phenylephrine at 30 μg/kg,"anesthetized dogs; endothelin-1 0.4 nmol/kg vs phenylephrine 30 μg/kg, i.v., dogs",about 4 times
same,Urethral pressure (increase of the prostatic urethral resistance),"anesthetized dogs; endothelin-1 i.v. 0.05 nmol/kg, anesthetized dogs",2.2 mmHg
same,Urethral pressure (increase of the prostatic urethral resistance),"anesthetized dogs; endothelin-1 i.v. 0.1 nmol/kg, anesthetized dogs",4.5 mmHg
same,Urethral pressure (increase of the prostatic urethral resistance),"anesthetized dogs; endothelin-1 i.v. 0.2 nmol/kg, anesthetized dogs",14.3 mmHg
same,Urethral pressure (increase of the prostatic urethral resistance),"anesthetized dogs; endothelin-1 i.v. 0.4 nmol/kg, anesthetized dogs",18.9 mmHg
same,Urethral pressure (increase of the prostatic urethral resistance),"anesthetized dogs; endothelin-1 i.v. 0.8 nmol/kg, anesthetized dogs",15.4 mmHg
same,Duration of the urethral resistance increasing activity,"anesthetized dogs; i.v., anesthetized dogs, compared with phenylephrine",more long-acting than that of phenylephrine
"Cc1ccc(-c2c(NS(=O)(=O)c3ccc(C(C)(C)CO)cc3)ncnc2OCCOc2ncc(Br)cn2)cc1.[Na] [test compound, 4-(2-hydroxy-1,1-dimethylethyl)-N-[6-{2-(5-bromopyrimidin-2-yloxy)ethoxy}-5-(4-methylphenyl)pyrimidin-4-yl]benzenesulfonamide sodium salt 1.5 hydrate]",Inhibition of the increase in urethral resistance induced by endothelin-1,[1],completely inhibited
CCC[C@@H]1NC(=O)[C@@H](C(C)C)NC(=O)[C@@H]2CCCN2C(=O)[C@@H](CC(=O)O)NC(=O)[C@@H](Cc2c[nH]c3ccccc23)NC1=O (cyclo([Nva][dW][dD]P[dV])),Inhibition of contractions of the smooth muscle of hypertrophied prostatic adenoma induced by endothelin-1,[2],inhibited
CNC[C@H](O)c1cccc(O)c1 [phenylephrine],Urethral pressure (increase of the prostatic urethral resistance),"anesthetized dogs; phenylephrine i.v. 0.3 μg/kg, anesthetized dogs",0.8 mmHg
same,Urethral pressure (increase of the prostatic urethral resistance),"anesthetized dogs; phenylephrine i.v. 1 μg/kg, anesthetized dogs",2.1 mmHg
same,Urethral pressure (increase of the prostatic urethral resistance),"anesthetized dogs; phenylephrine i.v. 3 μg/kg, anesthetized dogs",3.3 mmHg
same,Urethral pressure (increase of the prostatic urethral resistance),"anesthetized dogs; phenylephrine i.v. 10 μg/kg, anesthetized dogs",4.6 mmHg
same,Urethral pressure (increase of the prostatic urethral resistance),"anesthetized dogs; phenylephrine i.v. 30 μg/kg, anesthetized dogs",4.9 mmHg
"N-(4-isopropylbenzenesulfonyl)-α-(4-carboxy-2-n-propylphenoxy)-3,4-methylenedioxyphenylacetamide dipotassium salt",Activity of inhibiting the prostatic contractions induced by endothelin-1,[3],shows an activity of inhibiting
